# Source: ChEMBL document CHEMBL5705899 (Biochem J, 2014)
# Activity calls are given as the source filed them. The calls are words filed in the database; no cut-off is given here.
# Experiments:
# [1] = target: Fibroblast growth factor receptor 3 (Homo sapiens) (UniProt P22607); assay: Inhibition of human FGFR3 at 1 uM using polyEY as substrate in presence of 33P-ATP by ProQinase assay
# [2] = target: Tyrosine-protein kinase receptor TYRO3 (Homo sapiens) (UniProt Q06418); assay: Inhibition of human TYRO3 at 1 uM using PolyEY as substrate in presence of 33P-ATP by ProQinase assay
# [3] = target: Serine/threonine-protein kinase Chk2 (Homo sapiens) (UniProt O96017); assay: Inhibition of human CHK2 at 1 uM using bio-4xCHKT as substrate in presence of 33P-ATP by ProQinase assay
# [4] = target: Megakaryocyte-associated tyrosine-protein kinase (Homo sapiens) (UniProt P42679); assay: Inhibition of human MATK at 1 uM using polyEy as substrate in presence of 33P-ATP by ProQinase assay
# [5] = target: DNA-dependent protein kinase catalytic subunit (Homo sapiens) (UniProt P78527); assay: Inhibition of human DNPK1 at 1 uM using RBER-GSK3 as substrate in presence of 33P-ATP by ProQinase assay
# Homo sapiens = species on record: Homo sapiens; assay: Inhibition of DGK (unknown origin) at 1 uM
# [6] = target: Death-associated protein kinase 1 (Homo sapiens) (UniProt P53355); assay: Inhibition of recombinant human N-terminal GST-tagged DAPK1 (1 to 363 residues) expressed in Escherichia coli assessed as remaining activity at 1 uM using KKLNRTLSFAEPG as substrate incubated for 30 mins in presence of [gamma-33P]ATP by filter binding method relative to control
# [7] = target: Dual specificity protein kinase CLK4 (Homo sapiens) (UniProt Q9HAZ1); assay: Inhibition of human CLK4 at 1 uM using MBP as substrate in presence of 33P-ATP by ProQinase assay
# [8] = target: MAP kinase-interacting serine/threonine-protein kinase 1 (Homo sapiens) (UniProt Q9BUB5); assay: Inhibition of recombinant human N-terminal GST-tagged C-terminal His6-tagged MNK1 (2 to 424 residues) expressed in Escherichia coli assessed as remaining activity at 1 uM using eIF4E as substrate incubated for 30 mins in presence of [gamma-33P]ATP by filter binding method relative to control
# [9] = target: CDK1/Cyclin E (Homo sapiens) (UniProt P06493+P24864); assay: Inhibition of human CDK1/Cyclin E1at 1 uM using RBER-CHKtide as substrate in presence of 33P-ATP by ProQinase assay; format: protein-complex assay
# [10] = target: Aurora kinase B (Homo sapiens) (UniProt Q96GD4); assay: Inhibition of recombinant human N-terminal His6-tagged Aurora B (1 to 344 residues) expressed in Escherichia coli assessed as remaining activity at 1 uM using LRRLSLGLRRLSLGLRRLSLGLRRLSLG as substrate incubated for 30 mins in presence of [gamma-33P]ATP by filter binding method relative to control
# [11] = target: Diacylglycerol kinase gamma (Homo sapiens) (UniProt P49619); assay: Inhibition of recombinant human N-terminal His6-tagged DGKgamma (1 to 752 residues) expressed in baculovirus expression system at 1 uM using diacyl-glycerol as substrate incubated for 40 mins by ADP-Glo assay
# [12] = target: Ribosomal protein S6 kinase alpha-5 (Homo sapiens) (UniProt O75582); assay: Inhibition of human RPS6KA5 at 1 uM using RBER-CHKtide as substrate in presence of 33P-ATP by ProQinase assay
# [13] = target: Serine/threonine-protein kinase BRSK1 (Homo sapiens) (UniProt Q8TDC3); assay: Inhibition of recombinant human N-terminal His6-tagged BRSK1 (2 to 778 residues) expressed in baculovirus infected Sf21 cells assessed as remaining activity at 1 uM using KKLNRTLSFAEPG as substrate incubated for 30 mins in presence of [gamma-33P]ATP by filter binding method relative to control
# [14] = target: Protein kinase C alpha type (Homo sapiens) (UniProt P17252); assay: Inhibition of human PKCalpha at 1 uM using 3xChocktide-PKC as substrate in presence of 33P-ATP by ProQinase assay
# [15] = target: Serine/threonine-protein kinase Nek2 (Homo sapiens) (UniProt P51955); assay: Inhibition of human NEK2 at 1 uM using RB-CTF as substrate in presence of 33P-ATP by ProQinase assay
# [16] = target: Homeodomain-interacting protein kinase 3 (Homo sapiens) (UniProt Q9H422); assay: Inhibition of recombinant human N-terminal GST-tagged HIPK3 (161 to 562 residues) expressed in Escherichia coli assessed as remaining activity at 1 uM using MBP as substrate incubated for 30 mins in presence of [gamma-33P]ATP by filter binding method relative to control
# [17] = target: Casein kinase I isoform gamma-3 (Homo sapiens) (UniProt Q9Y6M4); assay: Inhibition of human CK1gamma3 at 1 uM using casein as substrate in presence of 33P-ATP by ProQinase assay
# [18] = target: Receptor-interacting serine/threonine-protein kinase 2 (Homo sapiens) (UniProt O43353); assay: Inhibition of human RIPK2 at 1 uM using RBER-CHKtide as substrate in presence of 33P-ATP by ProQinase assay
# [19] = target: Mitogen-activated protein kinase kinase kinase 5 (Homo sapiens) (UniProt Q99683); assay: Inhibition of recombinant human N-terminal GST-tagged ASK1 (670 to 950 residues) expressed in Escherichia coli assessed as remaining activity at 1 uM using MBP as substrate incubated for 30 mins in presence of [gamma-33P]ATP by filter binding method relative to control
# [20] = target: Tyrosine-protein kinase Fyn (Homo sapiens) (UniProt P06241); assay: Inhibition of human FYN at 1 uM using polyEY as substrate in presence of 33P-ATP by ProQinase assay
# [21] = target: Serine/threonine-protein kinase pim-1 (Homo sapiens) (UniProt P11309); assay: Inhibition of recombinant human N-terminal His6-tagged PIM1 (2 to 313 residues) expressed in baculovirus infected Sf21 cells assessed as remaining activity at 1 uM using RSRHSSYPAGT as substrate incubated for 30 mins in presence of [gamma-33P]ATP by filter binding method relative to control
# [22] = target: Ribosomal protein S6 kinase alpha-4 (Homo sapiens) (UniProt O75676); assay: Inhibition of human RPS6KA4 at 1 uM using RBER-CHKtide as substrate in presence of 33P-ATP by ProQinase assay
# [23] = target: PAS domain-containing serine/threonine-protein kinase (Homo sapiens) (UniProt Q96RG2); assay: Inhibition of human PASK at 1 uM using RBER-CHKtide as substrate in presence of 33P-ATP by ProQinase assay
# [24] = target: Mitogen-activated protein kinase 14 (Homo sapiens) (UniProt Q16539); assay: Inhibition of recombinant human N-terminal GST-tagged P38alpha (1 to 360 residues) expressed in Escherichia coli assessed as remaining activity at 1 uM using MBP as substrate incubated for 30 mins in presence of [gamma-33P]ATP by filter binding method relative to control
smiles,measurement,setting,value
CC(C)(O)CNc1ncc(-c2ccnc(Nc3ccnc(Cl)c3)n2)c(CC2CC2)n1,inhibition,[1],inactive
same,inhibition,[2],inactive
same,inhibition,[3],inactive
same,inhibition,[4],inactive
same,inhibition,[5],inactive
same,inhibition,Homo sapiens,inactive
same,Activity,[6],96%
same,inhibition,[7],inactive
same,Activity,[8],122%
same,inhibition,[9],inactive
same,Activity,[10],83%
same,inhibition,[11],inactive
same,inhibition,[12],inactive
same,Activity,[13],109%
same,inhibition,[14],inactive
same,inhibition,[15],inactive
same,Activity,[16],117%
same,inhibition,[17],inactive
same,inhibition,[18],inactive
same,Activity,[19],124%
same,inhibition,[20],inactive
same,Activity,[21],108%
same,inhibition,[22],inactive
same,inhibition,[23],inactive
same,Activity,[24],125%
